In ChEMBL document CHEMBL3797113, “Structural requirements of acylated Gly-l-Ala-d-Glu analogs for activation of the innate immune receptor NOD2” (Eur J Med Chem, 2016):
Active and inactive are the calls of the source. No cut-off for these calls is given here.

Tests used:
[1] = Cytotoxicity against NOD2 expressing HEK-Blue cells assessed as residual metabolic activity at 20 uM after 18 hrs by MTS assay relative to control; format: ADME, cell-based; conditions: human, read-out: Activity
[2] = target: T1, Nucleotide-binding oligomerization domain-containing protein 1 (Homo sapiens) (UniProt Q9Y239); assay: Agonist activity at NOD1 receptor (unknown origin) expressed in HEK-Blue cells assessed as NF-kappaB transcriptional activity at 20 uM after 18 hrs by secreted embryonic alkaline phosphatase reporter gene assay; format: cell-based
T1 sequence (whole entry): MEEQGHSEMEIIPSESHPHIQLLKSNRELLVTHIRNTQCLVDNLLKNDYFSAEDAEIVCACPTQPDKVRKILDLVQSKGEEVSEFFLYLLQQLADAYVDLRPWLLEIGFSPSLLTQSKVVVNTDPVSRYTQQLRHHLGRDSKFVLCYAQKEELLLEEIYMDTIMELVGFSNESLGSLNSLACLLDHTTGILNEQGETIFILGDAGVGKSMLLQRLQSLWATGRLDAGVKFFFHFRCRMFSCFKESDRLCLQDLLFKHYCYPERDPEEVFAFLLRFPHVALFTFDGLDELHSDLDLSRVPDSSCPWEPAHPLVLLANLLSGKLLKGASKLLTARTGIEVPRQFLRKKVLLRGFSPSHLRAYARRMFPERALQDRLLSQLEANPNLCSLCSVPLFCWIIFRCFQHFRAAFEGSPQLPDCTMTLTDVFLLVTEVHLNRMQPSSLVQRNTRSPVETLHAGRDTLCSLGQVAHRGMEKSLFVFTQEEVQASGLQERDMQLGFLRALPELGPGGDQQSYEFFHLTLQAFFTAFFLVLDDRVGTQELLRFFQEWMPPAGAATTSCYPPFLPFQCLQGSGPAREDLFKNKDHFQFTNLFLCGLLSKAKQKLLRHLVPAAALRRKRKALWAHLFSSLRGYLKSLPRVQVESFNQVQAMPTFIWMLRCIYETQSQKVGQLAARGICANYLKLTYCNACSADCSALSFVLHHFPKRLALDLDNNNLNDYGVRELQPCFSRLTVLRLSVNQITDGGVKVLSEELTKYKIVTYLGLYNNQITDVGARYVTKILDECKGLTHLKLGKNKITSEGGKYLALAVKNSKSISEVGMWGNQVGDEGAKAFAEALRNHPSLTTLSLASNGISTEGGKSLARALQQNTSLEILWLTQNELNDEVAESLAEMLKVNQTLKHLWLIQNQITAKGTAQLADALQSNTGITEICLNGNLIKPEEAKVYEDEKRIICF

[3] = target: T2, Nucleotide-binding oligomerization domain-containing protein 2 (Homo sapiens, UniProt Q9HC29); assay: Agonist activity at NOD2 receptor (unknown origin) expressed in HEK-Blue cells assessed as NF-kappaB transcriptional activity after 18 hrs by secreted embryonic alkaline phosphatase reporter gene assay; format: cell-based
T2 sequence (Q9HC29 whole entry, the tested form may be a part): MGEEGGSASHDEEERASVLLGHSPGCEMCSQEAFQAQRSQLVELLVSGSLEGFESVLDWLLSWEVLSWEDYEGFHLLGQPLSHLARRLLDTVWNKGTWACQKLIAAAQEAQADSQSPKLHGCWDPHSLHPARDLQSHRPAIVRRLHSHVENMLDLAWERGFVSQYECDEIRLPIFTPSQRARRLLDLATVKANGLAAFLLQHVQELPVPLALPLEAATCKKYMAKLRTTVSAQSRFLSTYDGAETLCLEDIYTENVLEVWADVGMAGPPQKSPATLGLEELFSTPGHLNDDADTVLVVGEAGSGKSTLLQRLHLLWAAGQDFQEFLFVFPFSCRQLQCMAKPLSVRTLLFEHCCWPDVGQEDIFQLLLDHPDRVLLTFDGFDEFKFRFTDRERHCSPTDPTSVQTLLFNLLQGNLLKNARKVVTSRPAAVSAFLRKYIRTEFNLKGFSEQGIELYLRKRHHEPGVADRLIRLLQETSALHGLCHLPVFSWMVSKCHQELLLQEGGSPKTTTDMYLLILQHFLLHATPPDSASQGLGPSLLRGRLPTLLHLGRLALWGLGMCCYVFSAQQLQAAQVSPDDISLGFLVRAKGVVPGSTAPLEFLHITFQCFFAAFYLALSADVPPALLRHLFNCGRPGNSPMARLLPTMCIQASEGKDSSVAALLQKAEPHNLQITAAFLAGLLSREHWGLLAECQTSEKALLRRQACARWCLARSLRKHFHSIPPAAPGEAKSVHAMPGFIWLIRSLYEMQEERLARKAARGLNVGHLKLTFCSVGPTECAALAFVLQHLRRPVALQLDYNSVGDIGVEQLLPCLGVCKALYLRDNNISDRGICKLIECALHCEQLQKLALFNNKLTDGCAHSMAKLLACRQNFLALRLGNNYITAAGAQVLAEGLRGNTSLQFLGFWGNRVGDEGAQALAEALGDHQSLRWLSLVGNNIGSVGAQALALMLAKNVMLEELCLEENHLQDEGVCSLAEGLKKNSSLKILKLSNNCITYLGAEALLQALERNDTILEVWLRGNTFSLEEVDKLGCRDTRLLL

[4] = target: T2, Nucleotide-binding oligomerization domain-containing protein 2; assay: Agonist activity at NOD2 receptor (unknown origin) expressed in HEK-Blue cells assessed as NF-kappaB transcriptional activity at 20 uM after 18 hrs by secreted embryonic alkaline phosphatase reporter gene assay relative to untreated control; format: cell-based

| SMILES | viability at 18 h, 20 µM [1] [%] | Activity [2] | Activity [3] | EC50 [3] [nM] | fold change (FC) [4] | Activity [4] |
| --- | --- | --- | --- | --- | --- | --- |
| CCOC(=O)CC[C@@H](NC(=O)[C@H](C)NC(=O)CNC(=O)c1cc2ccc(-c3ccccc3)cc2[nH]1)C(=O)OCC | ≥ 80 | inactive | Dose-dependent effect | 2880 | 11.2 | – |
| CCOC(=O)CC[C@@H](NC(=O)[C@H](C)NC(=O)CNC(=O)c1cc2cc(-c3ccccc3)ccc2[nH]1)C(=O)OCC | ≥ 80 | inactive | – | – | 10.4 | – |
| CCOC(=O)CC[C@@H](NC(=O)[C@H](C)NC(=O)CNC(=O)C1Cc2ccccc2N1)C(=O)OCC (some centres not stated) | ≥ 80 | inactive | – | – | 3.17 | – |
| CCOC(=O)CC[C@@H](NC(=O)[C@H](C)NC(=O)CNC(=O)/C=C/c1ccccc1)C(=O)OCC | ≥ 80 | inactive | – | – | 7.37 | – |
| CCOC(=O)CC[C@@H](NC(=O)[C@H](C)NC(=O)CNC(=O)C(=O)Nc1ccccc1)C(=O)OCC | ≥ 80 | inactive | – | – | 1.15 | – |
| Cc1nc(CC[C@@H](NC(=O)[C@H](C)NC(=O)CNC(=O)c2cc3ccccc3[nH]2)c2noc(C)n2)no1 | ≥ 80 | inactive | – | – | – | inactive |
| CCOC(=O)CC[C@@H](NC(=O)[C@H](C)NC(=O)CNC(=O)c1cc2ccccc2[nH]1)C(=O)OCC | – | inactive | – | – | 5.2 | – |
| CCOC(=O)CC[C@@H](NC(=O)[C@H](C)NC(=O)CNC(=O)c1cc2c(-c3ccccc3)cccc2[nH]1)C(=O)OCC | ≥ 80 | inactive | – | – | 2.95 | – |
| C[C@H](NC(=O)CNC(=O)c1cc2ccccc2[nH]1)C(=O)N[C@H](CCC(=O)O)C(=O)O | ≥ 80 | inactive | – | – | 2.1 | – |
| CCOC(=O)CC[C@@H](NC(=O)[C@H](C)NC(=O)CNC(=O)c1cc2cc(F)ccc2[nH]1)C(=O)OCC | ≥ 80 | inactive | – | – | 3.02 | – |
| CCOC(=O)CC[C@@H](NC(=O)[C@H](C)NC(=O)CNC(=O)c1cc2cccc(-c3ccccc3)c2[nH]1)C(=O)OCC | ≥ 80 | inactive | – | – | 6.51 | – |
| CC(=O)N[C@H]1C(O)O[C@H](CO)[C@@H](O)[C@@H]1O[C@H](C)C(=O)N[C@@H](C)C(=O)N[C@H](CCC(=O)O)C(N)=O (some centres not stated) [MURAMYL DIPEPTIDE] | – | inactive | Dose-dependent effect | 46 | 11.5 | – |
| CCOC(=O)CC[C@@H](NC(=O)[C@H](C)NC(=O)CNC(=O)C1Cc2ccccc2N1C(=O)OC(C)(C)C)C(=O)OCC (some centres not stated) | ≥ 80 | inactive | – | – | 2.58 | – |
| CCOC(=O)CC[C@@H](NC(=O)[C@H](C)NC(=O)CNC(=O)c1c[nH]c2ccccc12)C(=O)OCC | ≥ 80 | inactive | – | – | 1.22 | – |
| CCOC(=O)CC[C@@H](NC(=O)[C@H](C)NC(=O)CNC(=O)c1cc2ccccc2n1Cc1ccc(F)cc1)C(=O)OCC | ≥ 80 | inactive | – | – | 2.8 | – |
| CCOC(=O)CC[C@@H](NC(=O)[C@H](C)NC(=O)CCNC(=O)c1cc2ccccc2[nH]1)C(=O)OCC | ≥ 80 | inactive | – | – | 1.41 | – |
| C[C@H](NC(=O)CNC(=O)c1cc2ccccc2[nH]1)C(=O)N[C@H](CCC(=O)OCc1ccccc1)C(=O)OCc1ccccc1 | ≥ 80 | inactive | – | – | 8.82 | – |
| CCOC(=O)CC[C@@H](NC(=O)[C@H](C)NC(=O)CNC(=O)c1cc2cc(Br)ccc2[nH]1)C(=O)OCC | ≥ 80 | inactive | – | – | 4.58 | – |
| CCOC(=O)CC[C@@H](NC(=O)[C@H](C)NC(=O)CNC(=O)c1ccc[nH]1)C(=O)OCC | ≥ 80 | inactive | – | – | 1.08 | – |
| CCOC(=O)CC[C@@H](NC(=O)[C@H](C)NC(=O)CNC(=O)c1cc2ccccc2n1C)C(=O)OCC | ≥ 80 | inactive | – | – | 2.14 | – |
